Data published in US10364226B2, “Pyridazinone compounds and uses thereof” (priority 2013, dated 2019).

Assays:
[1] = test system: Influenza strain A549 A/WSN/33 (H1N1); assay: Influenza Antiviral Assay; assay type: cell-based, Influenza A virus; conditions: Influenza A virus, A549, 20 h, neuraminidase fluorescence readout, read-out: % Inhibition
[2] = target: EN PA (Influenza A virus, UniProt P15659); assay: EN PA FRET Inhibition Assay; assay type: biochemical; conditions: read-out: Potency

SMILES	EC50 [1] [nM]	IC50 [2] [nM]
O=C1NCC/C=C/Cc2ccc3c(C(=O)C(F)(F)F)cn(c3c2)C2(CCCC2)Cn2cc(O)c(=O)c1n2 [Compound 836]	> 100000	≥ 1000
CNC(=O)c1nn(CCC(c2ccccc2)c2ccccc2)cc(O)c1=O [Compound 837]	> 100000	100 to 1000
CNC(=O)c1nn(CCN2c3ccccc3C=Cc3ccccc32)cc(O)c1=O [Compound 838]	< 20000	< 100
CNC(=O)c1nn(CCC2c3ccccc3CCc3ccccc32)cc(O)c1=O [Compound 839]	> 100000	100 to 1000
CNC(=O)c1nn(CCN2c3ccccc3CCc3ccccc32)cc(O)c1=O [Compound 840]	> 100000	100 to 1000
O=C1NCC/C=C/Cc2ccc3ccn(c3c2)C2(CCCC2)Cn2cc(O)c(=O)c1n2 [Compound 841]	< 20000	100 to 1000
CNC(=O)c1nn(CCN2c3ccccc3COc3ccccc32)cc(O)c1=O [Compound 842]	> 100000	100 to 1000
CNC(=O)c1nn(CC2(c3ccc4ccccc4n3)CCCC2)cc(O)c1=O [Compound 843]	< 20000	< 100
CNC(=O)c1nn(CC2(c3ccc4cnccc4c3)CCCC2)cc(O)c1=O [Compound 844]	< 20000	< 100
CNC(=O)c1nn(CC2(c3ccc4ncccc4c3)CCCC2)cc(O)c1=O [Compound 845]	< 20000	< 100
CNC(=O)c1nn(CC2(c3cc(C)c4ncccc4c3)CCCC2)cc(O)c1=O [Compound 846]	< 20000	< 100
CNC(=O)c1nn(CC2(c3cc(F)c4ncccc4c3)CCCC2)cc(O)c1=O [Compound 847]	> 100000	< 100
CNC(=O)c1nn(CC2(c3ccc4ccncc4c3)CCCC2)cc(O)c1=O [Compound 848]	> 100000	< 100
CNC(=O)c1nn(CC2(c3ccc4cccnc4c3)CCCC2)cc(O)c1=O [Compound 849]	< 20000	< 100
CNC(=O)c1nn(CC2(n3ccc4ccccc43)CCCC2)cc(O)c1=O [Compound 850]	< 20000	< 100
CNC(=O)c1nn(CC2(n3cc(C)c4cc(Cl)cnc43)CCCC2)cc(O)c1=O [Compound 851]	< 20000	< 100
CNC(=O)c1nn(CC2(n3cc(C)c4cccnc43)CCCC2)cc(OCc2ccccc2)c1=O [Compound 852]	> 100000	≥ 1000
CNC(=O)c1nn(CC2(n3ccc4ccc(C)nc43)CCCC2)cc(O)c1=O [Compound 853]	< 20000	< 100
CONC(=O)c1nn(CC2(n3cc(C)c4cccnc43)CCCC2)cc(O)c1=O [Compound 854]	< 20000	< 100
CNC(=O)c1nn(CC2(n3cnc4cncnc43)CCCC2)cc(O)c1=O [Compound 855]	> 100000	100 to 1000
CNC(=O)c1nn(CC2(n3ccc4c(Cl)cccc43)CCCC2)cc(O)c1=O [Compound 856]	< 20000	< 100
CNC(=O)c1nn(CC2(n3ccc4c(C)cccc43)CCCC2)cc(O)c1=O [Compound 857]	< 20000	< 100
CNC(=O)c1nn(CC2(Cn3cc(C)c4cccnc43)CCCC2)cc(O)c1=O [Compound 858]	> 100000	100 to 1000
CNC(=O)c1nn(CC2(n3ccc4c(F)cccc43)CCCC2)cc(O)c1=O [Compound 859]	< 20000	< 100
CNC(=O)c1nn(CC2(n3ccc4ccc(Cl)cc43)CCCC2)cc(O)c1=O [Compound 860]	< 20000	< 100

SMILES	EC50 [1] [nM]	IC50 [2] [nM]
CNC(=O)c1nn(CC2(n3ccc4ccc(F)cc43)CCCC2)cc(O)c1=O [Compound 861]	< 20000	< 100
CCn1cc(C2(Cn3cc(O)c(=O)c(C(=O)NC)n3)CCCC2)c2ccccc21 [Compound 862]	> 100000	100 to 1000
Cc1cn(C2(Cn3cc(O)c(=O)c(C(=O)NC(C)(C)CNC(=O)OC(C)(C)C)n3)CCCC2)c2ncccc12 [Compound 863]	< 20000	100 to 1000
CNC(=O)c1nn(CC2(n3ccc4c(C)ccnc43)CCCC2)cc(O)c1=O [Compound 864]	< 20000	< 100
Cc1cn(C2(Cn3cc(O)c(=O)c(C(=O)NCCN)n3)CCCC2)c2ncccc12 [Compound 865]	< 20000	< 100
CC(C)(CO)NC(=O)c1nn(CC2(n3cc(Cl)c4cccnc43)CCCC2)cc(O)c1=O [Compound 866]	< 20000	< 100
CC(C)(CO)NC(=O)c1nn(CC2(n3ccc4cccnc43)CCCC2)cc(O)c1=O [Compound 867]	< 20000	< 100
Cc1cn(C2(Cn3cc(O)c(=O)c(C(=O)NC(C)(C)CN)n3)CCCC2)c2ccccc12 [Compound 868]	< 20000	< 100
Cc1cn(C2(Cn3cc(O)c(=O)c(C(=O)NCC(C)(C)CNC(=O)OC(C)(C)C)n3)CCCC2)c2ncccc12 [Compound 869]	< 20000	100 to 1000
Cc1cn(C2(Cn3cc(O)c(=O)c(C(=O)NCC(C)(C)CN)n3)CCCC2)c2ncccc12 [Compound 870]	20000 to 100000	< 100
CNC(=O)c1nn(CC2(c3cccc4[nH]ncc34)CCCC2)cc(O)c1=O [Compound 871]	> 100000	< 100
CNC(=O)c1nn(CC2(n3ccc4cc(C)cnc43)CCCC2)cc(O)c1=O [Compound 872]	< 20000	< 100
O=C1NCCCCCOc2ccc(cc2)C2(CCCC2)Cn2cc(O)c(=O)c1n2 [Compound 873]	> 100000	100 to 1000
CCOC(=O)[C@H]1[C@@H]2CC(Cn3cc(O)c(=O)c(C(=O)NC)n3)(n3cc(C)c4cccnc43)C[C@@H]21 (some centres unmarked) [Compound 874]	> 100000	100 to 1000
C#Cc1cn(C2(Cn3cc(O)c(=O)c(C(=O)NC)n3)CCCC2)c2ncc(C)cc12 [Compound 875]	< 20000	< 100
Cc1cn(C2(Cn3cc(O)c(=O)c(C(=O)NCCNC(=O)OC(C)(C)C)n3)CCCC2)c2ncccc12 [Compound 876]	< 20000	< 100
Cc1cn(C2(Cn3cc(O)c(=O)c(C(=O)N4CCOCC4)n3)CCCC2)c2ncccc12 [Compound 877]	> 100000	100 to 1000
CNC(=O)c1nn(CC2(c3ccc4cc(C)ccc4c3)CCCC2)cc(O)c1=O [Compound 879]	< 20000	< 100
CNC(=O)c1nn(CC2(n3cc(C(=O)NC)c4cccnc43)CCCC2)cc(O)c1=O [Compound 880]	> 100000	< 100
CNC(=O)c1nn(CC2(c3cccc4c3cnn4C)CCCC2)cc(O)c1=O [Compound 881]	< 20000	< 100
CNC(=O)c1nn(CC2(c3cccc4nn(C)cc34)CCCC2)cc(O)c1=O [Compound 882]	< 20000	< 100
CNC(=O)c1nn(CC2(n3cc(C(N)=O)c4cccnc43)CCCC2)cc(O)c1=O [Compound 883]	> 100000	< 100
CNC(=O)c1nn(CC2(N3c4ccccc4C=Cc4ccccc43)CCCC2)cc(O)c1=O [Compound 884]	< 20000	< 100
CNC(=O)c1nn(CC2(n3cc(C)c4cccnc43)C[C@@H]3[C@@H](CO)[C@@H]3C2)cc(O)c1=O (some centres unmarked) [Compound 885]	> 100000	100 to 1000
